Literature values, collected in patent US20030203043A1 (priority 2002, published 2003).
Read-outs that look alike come from different tables or passages of the source.

Legend:
[1] = supplementation
[2] = female rats
aromatase = target: T1, aromatase (Homo sapiens, UniProt P11511); details: relative to chrysin, AG, ANG
T1 sequence (P11511 1-503): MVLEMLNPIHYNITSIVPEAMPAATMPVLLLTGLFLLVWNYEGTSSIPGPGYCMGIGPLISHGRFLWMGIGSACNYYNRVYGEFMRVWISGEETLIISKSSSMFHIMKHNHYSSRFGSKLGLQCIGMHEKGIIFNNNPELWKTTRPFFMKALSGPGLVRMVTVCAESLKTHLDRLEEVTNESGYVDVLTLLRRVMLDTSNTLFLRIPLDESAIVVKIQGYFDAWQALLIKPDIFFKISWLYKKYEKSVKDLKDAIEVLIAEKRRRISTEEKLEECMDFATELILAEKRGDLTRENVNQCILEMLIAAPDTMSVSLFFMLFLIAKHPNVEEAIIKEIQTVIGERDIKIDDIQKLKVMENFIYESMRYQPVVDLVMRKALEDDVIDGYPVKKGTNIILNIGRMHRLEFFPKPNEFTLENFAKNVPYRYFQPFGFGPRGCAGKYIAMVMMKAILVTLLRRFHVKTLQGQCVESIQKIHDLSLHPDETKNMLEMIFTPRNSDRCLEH

[3] = not given; remark: listed apart in the source
[4] = hypogonadal men; for waking erection: Asian group; for sexual interest and activity, spontaneous erection: Caucasian group
[5] = prostate and seminal vesicle weights
[6] = levator ani muscles
[7] = 300 mg/wk, six weeks; TE shoulders; ND shoulders and chest
[8] = pharmacological doses
[9] = compared with placebo
[10] = in vivo
[11] = in vivo; remark: listed apart in the source

## C[C@]12CC[C@H]3[C@@H](CCC4=C[C@@H](O)CC[C@@]43C)[C@@H]1CC[C@@H]2O [4-androstenediol]
supplementation
  urine testosterone concentration relative to 4-androstenedione: 10 fold

## C[C@]12CCC(=O)C=C1CC[C@@H]1[C@@H]2CC[C@]2(C)C(=O)CC[C@@H]12 [4-androstenedione]
[1]
  serum testosterone: elevations in serum testosterone

## C[C@]12CC[C@H]3[C@@H](CC=C4C[C@@H](O)CC[C@@]43C)[C@@H]1CC[C@@H]2O [5-androstenediol]
[2]
  lipid deposition or heat production: did not have a significant effect
  proportion of protein in the body composition: increased the proportion of protein

## C[C@]12CC[C@H]3[C@@H](CCC4=CC(=O)CC[C@@H]43)[C@@H]1CCC2=O [19-nor-androstenedione]
In vivo
  excretion products: excreted mainly as nor-androsterone and nor-etiocholanolone

## COc1ccc(-c2coc3cc(O)cc(O)c3c2=O)cc1 [Biochanin A, 5,7-dihydroxy-4′-methoxyisoflavone]
aromatase
  aromatase inhibition: inhibited aromatase, but to a lesser degree

## C[C@]12CC[C@H](O)CC1=CC[C@@H]1[C@@H]2CC[C@]2(C)C(=O)CC[C@@H]12 [DHEA, dehydro-epiandrosterone]
[3]; 50 mg dose
  plasma testosterone: levels similar to those observed in young women
[3]; 50 mg or 200 mg DHEA
  delta 5-androstenediol plasma level: small increase
  increase of plasma delta 4-androstenedione: significant and dose dependent
  plasma estrogens, particularly estradiol: significant and dose dependent increase
[3]; 200 mg dose
  plasma testosterone: slightly below the levels observed in normal men
[3]; both doses
  increase of plasma dihydrotestosterone levels: small

## C[C@@H]1CC2=CC(=O)CC[C@@H]2[C@H]2CC[C@]3(C)[C@@H](O)CC[C@H]3[C@@H]21 [MENT, 7α-methyl-19-nor-testosterone]
[4]
  waking erection: increased waking erection
  sexual interest and activity, spontaneous erection: significant increases
[5]
  androgenic potency relative to testosterone: four- to five-times
[6]
  anabolic potency relative to testosterone: ten-times

## CCCCCCC(=O)O[C@H]1CC[C@H]2[C@@H]3CCC4=CC(=O)CC[C@]4(C)[C@H]3CC[C@]12C [TE, testosterone enanthate]
[4]
  waking erection: increased waking erection
  sexual interest and activity, spontaneous erection: significant increases
[7]
  body circumferences: significant increases

## C[C@]12CC[C@H]3[C@@H](CCC4=CC(=O)CC[C@@]43C)[C@@H]1CC[C@@H]2O [Testosterone]
[2]
  lipid deposition or heat production: did not have a significant effect
  proportion of protein in the body composition: increased the proportion of protein

## CCCCCCCCCC(=O)O[C@H]1CC[C@H]2[C@@H]3CCC4=CC(=O)CC[C@@H]4[C@H]3CC[C@]12C [nandrolone decanoate]
[8]
  total weight, lean body mass, body cell mass, muscle size, and strength: significant gains
[7]
  body circumferences: significant increases

## C[C@]12CC[C@H]3[C@@H](CCC4=CC(=O)CC[C@@H]43)[C@@H]1CC[C@@H]2O [nandrolone, 19-nor-testosterone]
[2]
  energy expenditure: increased energy expenditure
[9]
  lean body mass: increased significantly
[10]
  decrease in HDL-cholesterol: 25-27%
[11]
  effect on sperm: azoospermia
